Broadly, the IC50 is the concentration at which inhibition is half-maximal. The term viability denotes a read-out of living cells in per cent, often relative to untreated cells.

Structures can show the parent of a compound that is named as a salt. Where two headings read alike, the source gives them in different places.

In one series the test system is KP-1 cells. The experiment in a line: Dose-dependent CCK8 viability assay. Type of series: cell-based. Particulars: Mus musculus, 48 hours. The procedure:
(§1) In this example, dose-dependent CCK8 Viability assay was performed to determine the IC50 (the concentration of compound to achieve 50% viability) of several of the hit compounds identified from Example 2. A variety of cell lines were used: • Jurkat cells: Human leukemia • A549 cells: Human NSCLC • KP-1 cells: Mouse NSCLC with KRAS and P53 mutations • MCF-7 cells: Human breast cancer
(§2) Method for Adherent Cells (A549, MCF-7 and KP-1 Cells)
(§3) 5000 cells/100 uL were seeded in 96-well plates and incubate at 37° C.+5% CO2 overnight. Media were replaced with 100 uL of compound per well in 6 replicates in a series of 2-fold dilutions. The following controls were prepared.
(§4) Blank control: 100 uL 0.1% DMSO in media with no cells per well.
(§5) Positive control: 100 uL of 10 uM 5-flurouracil per well.
(§6) Negative control: 100 uL of 0.1% DMSO in media per well.
(§7) Each 96-well plate included 1 compound in 7 concentrations and a complete set of controls (in 6 replicates).
(§8) Cells were incubated at 37° C.+5% CO2 for 46 hours. 10 uL of CCK8 solution was added to each well. Cells were incubated at 37° C.+5% CO2 for 2 hours. Absorbance at 450 nm was measured using a multiplate reader.
(§9) Viability was calculated using the equation: […]
A general note: Tetrazolium dyes change colour on reduction, which living cells bring about.

Series [1] has as its system A549 cells. The experiment in a line: Single-dose CCK-8 cell viability screening (adherent cells). Type of series: cell-based, human. Particulars: Homo sapiens, A549 cells, 50 uM, 48 h, CCK-8, read-out: % Viability (50 uM, 48 h) A549.
Test in series [2]: as above
Type of series: cell-based, human. Particulars: Homo sapiens, average of A549 and Jurkat % viability, 50 uM, 48 h.

The subject of the next series is Jurkat cells. In words: Single-dose CCK-8 cell viability screening (suspension cells). Type of series: cell-based, human. Particulars: Homo sapiens, Jurkat cells, 50 uM, 48 h.
Series [3] in a line: Hydrolytic stability in buffer monitored by LC-MS/MS.
Series [4] relates to A549 cells. The experiment in a line: Dose-dependent CCK8 viability assay. Type of series: cell-based, human. Particulars: Homo sapiens, A549, 48 h. The procedure:
as §1, §2, §3, §4, §5, §6, §7, §8, §9

Setting [5] is: Jurkat, CCK-8, read-out: % Viability (50 uM, 48 h) Jurkat.

As for `CC(C)(C)[C@]1(O)C[C@@H]2OC(=O)C[C@@]23C(=O)O[C@@H]2N(CC4C5CC6CC(C5)CC4C6)C(=O)[C@H](OC(=O)c4ccc(CN)cc4)[C@]213` (stereo partly drawn) [SCC506, (3aS,5aS,8R,8aS,9R,10aS)-6-(((1S,3S)-adamantan-2-yl)methyl)-9-(tert-butyl)-9-hydroxy-2,4,7-trioxooctahydro-4H,9H-furo[3″,2″:2′,3′]cyclopenta[1′,2′:3,4]furo[2,3-b]pyrrol-8-yl 4-(aminomethyl)benzoate hydrochloride], half-maximal inhibition in the series with KP-1 cells (IC50) required 17.2 µM.
As for `CC(C)(C)[C@]1(O)C[C@@H]2OC(=O)C[C@@]23C(=O)O[C@@H]2NC(=O)[C@H](O)[C@]213` [XBB-006, (3aS,5aS,8R,8aS,9R,10aS)-9-(tert-butyl)-8,9-dihydroxytetrahydro-4H,9Hfuro[3″,2″:2′,3′]cyclopenta[1′,2′:3,4]furo[2,3-b]pyrrole-2,4,7(3H,8H)-trione], the viability at 50 µM in the series with A549 cells [1] stood at 96.4%; in series [2] it was 99.2%; with Jurkat cells (CCK-8, read-out: % Viability (50 uM, 48 h) Jurkat) it was 102%. In addition, the “concentration remaining (hydrolytic stability)” value in series [3] (buffer pH 6.8, after 20 hours) is “about 80%”; in series [3] (buffer pH 7.4, within the first 10 hours), “above 80%”.
Take `CC(C)(C)[C@]1(O)C[C@@H]2OC(=O)C[C@@]23C(=O)O[C@@H]2N(c4ccc(C(F)(F)F)cc4)C(=O)[C@H](OC(=O)c4ccccc4)[C@]213` [P-29, (3aS,5aS,8R,9R,10aS)-9-(tert-butyl)-9-hydroxy-2,4,7-trioxo-6-(4-(trifluoromethyl)phenyl)octahydro-4H,9H-furo [3″,2″:2′,3′]cyclopenta [1′,2′:3,4]furo [2,3-b]pyrrol-8-yl benzoate]: it took 5.84 µM to reach half-maximal inhibition with A549 cells [4] (IC50). Moreover, the viability at 50 µM was 46.7% in the series on A549 cells [1] (A549, 48 h); 53.1% in series [2] (A549, 48 h); 59.6% in the series on Jurkat cells (setting [5]).
On the same counts, the results for `CC(C)(C)[C@]1(O)C[C@@H]2OC(=O)C[C@@]23C(=O)O[C@@H]2N(c4ccc(Cl)c(Cl)c4)C(=O)[C@H](OC(=O)c4ccccc4)[C@]213` [P-21, (3aS,5aS,8R,8aS,9R,10aS)-9-(tert-butyl)-9-hydroxy-2,4,7-trioxo-6-(3,4-dichloro-phenyl)octahydro-4H,9H-furo [3″,2″:2′,3′]cyclopenta [1′,2′:3,4]furo [2,3-b]pyrrol-8-yl benzoate] are 17.9 µM, 56.5%, 55% and 53.5%.
